# According to patent US20250000856A1, “CRYSTALLINE FORMS OF N-((1R,3S)-3-(4-ACETYLPIPERAZIN-1-YL)CYCLOHEXYL)-4-FLUORO-7-METHYL-1H-INDOLE-2-CARBOXAMIDE” (Epizyme, Inc., priority 2021, published 2025):
# Assay: Pharmacokinetics of Free Base Forms I and II in male Beagle dogs after a single oral dose; Compound 1 plasma concentrations by LC-MS/MS
# Type: in vivo
# Experimental: In this study, male Beagle dogs were administered Free Base Form I and Free Base Form II at 25 mg/kg and 100 mg/kg (0.5% carboxymethylcellulose (CMC) and 0.1% Tween in water at pH 7). The dogs were fasted overnight and then offered food one hour prior to oral administration of the form. Blood samples were collected at predetermined timepoints up to 48 hours. Compound 1 plasma concentrations were determined by liquid chromatography with tandem mass spectrometry (LC-MS/MS) methods.
# [1] = 25 mg/kg dose, versus Free Base Form I
# [2] = 100 mg/kg dose, versus Free Base Form I
smiles,measurement,setting,value
"CC(=O)N1CCN([C@H]2CCC[C@@H](NC(=O)c3cc4c(F)ccc(C)c4[nH]3)C2)CC1 [Free Base Form II, N-((1R,3S)-3-(4-acetylpiperazin-1-yl)cyclohexyl)-4-fluoro-7-methyl-1H-indole-2-carboxamide]",Compound 1 AUC0-inf greater than that of Free Base Form I,[1],~20%
same,Compound 1 Cmax greater than that of Free Base Form I,[1],~40%
same,AUC0-inf greater than that of Free Base Form I,[2],3.1 fold
same,Cmax greater than that of Free Base Form I,[2],1.8 fold
same,exposure in dogs compared with Free Base Form I,"oral 25 and 100 mg/kg, difference dose-dependent",unexpectedly greater exposure
